From patent publication US9420813B2, “Sweetener” (AJINOMOTO CO., INC., priority 2007, dated 2016)
*1 amine or outer side, *2 acyl side, *3 side chain or, on linkers, in order; H or OH if unused. Where no end group is shown, it is not given here. [ ]: non-standard residue; d: D form. γGlu = O=C(O)[C@H](CCC(=O)[*:2])N[*:1]; Met(O) = CS(=O)CC[C@H](N)C(=O)O; Orn = NCCC[C@H](N)C(=O)O

Target: T1, human calcium receptor (Homo sapiens, UniProt P41180)
T1 construct: expressed in transfected cells; host or cells: Xenopus laevis oocytes injected with receptor cRNA; the gene was amplified by PCR from human kidney cDNA (Clontech) and cloned in pBR322
T1 sequence (P41180 20-1078): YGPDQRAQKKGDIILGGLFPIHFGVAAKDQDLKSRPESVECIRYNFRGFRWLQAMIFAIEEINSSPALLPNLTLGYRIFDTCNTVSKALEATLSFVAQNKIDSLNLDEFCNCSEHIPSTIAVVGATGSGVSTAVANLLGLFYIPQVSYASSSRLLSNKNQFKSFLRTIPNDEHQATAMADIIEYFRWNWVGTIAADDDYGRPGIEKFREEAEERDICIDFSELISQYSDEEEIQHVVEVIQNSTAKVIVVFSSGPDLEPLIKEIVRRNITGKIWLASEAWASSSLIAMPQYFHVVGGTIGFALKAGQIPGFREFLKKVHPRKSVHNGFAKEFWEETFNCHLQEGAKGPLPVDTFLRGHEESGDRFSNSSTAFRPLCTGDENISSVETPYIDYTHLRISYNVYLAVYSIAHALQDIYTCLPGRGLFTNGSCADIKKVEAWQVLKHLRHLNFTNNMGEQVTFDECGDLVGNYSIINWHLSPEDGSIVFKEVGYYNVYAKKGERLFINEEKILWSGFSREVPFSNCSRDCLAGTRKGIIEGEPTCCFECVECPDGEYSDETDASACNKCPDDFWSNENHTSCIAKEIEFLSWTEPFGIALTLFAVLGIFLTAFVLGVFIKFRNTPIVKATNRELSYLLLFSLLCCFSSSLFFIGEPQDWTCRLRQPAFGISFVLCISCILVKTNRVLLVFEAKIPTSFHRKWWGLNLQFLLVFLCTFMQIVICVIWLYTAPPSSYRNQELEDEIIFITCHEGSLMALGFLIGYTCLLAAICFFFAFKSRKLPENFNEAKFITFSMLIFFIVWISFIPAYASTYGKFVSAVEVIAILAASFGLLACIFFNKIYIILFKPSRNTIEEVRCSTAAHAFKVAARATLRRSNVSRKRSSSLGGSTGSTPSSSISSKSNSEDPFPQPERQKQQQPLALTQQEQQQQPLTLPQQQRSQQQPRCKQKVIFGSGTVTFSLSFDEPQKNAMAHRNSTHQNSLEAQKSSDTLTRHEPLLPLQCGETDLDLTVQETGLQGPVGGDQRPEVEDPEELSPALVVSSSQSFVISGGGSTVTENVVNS
Test: Calcium receptor-activating effect, Ca ion concentration-dependent Cl ionic current in Xenopus laevis oocyte expression system
Assay type: cell-based
Settings: amino acid added at 10 mM
Procedure: For evaluation of the calcium receptor-activating effect, Ca ion concentration-dependent Cl ionic current measuring method using a Xenopus laevis oocyte expression system was used. If activator is added to Xenopus laevis oocytes in which the calcium receptor is expressed, intracellular Ca ions increase. Then, the Ca ion concentration-dependent Cl channel opens, and the intracellular current value changes as an ionic current. By measuring the change in the intracellular current value, whether the calcium receptor-activating effect is present or not can be determined.
Specifically, the abdomen of Xenopus laevis was opened, and an egg batch was taken out and then treated with a 1% collagenase solution at 20° C. for 2 hours to obtain individual oocytes. Into each oocyte, 50 nl of 1 μg/μl receptor cRNA or 50 nl of sterilized water per oocyte were injected by using a micro glass capillary, and the oocytes were cultured at 18° C. for 2 to 3 days. For the culture, a solution obtained by adding 2 mM of pyruvic acid, 10 U/ml of penicillin and 10 μg/ml of streptomycin to the solution in Reference Example 2 was used. After the culture, a test solution was added to the oocytes injected with cRNA or sterilized water. Electrophysiological measurement was performed by using an amplifier Geneclamp 500 (manufactured by Axon) and recording software AxoScope 9.0 (manufactured by Axon). The oocytes were voltage-clamped at −70 mV by the double electrode voltage clamp method, and the intracellular current via the Ca ion concentration-dependent Cl ion was measured. The maximum value of the intracellular currents was defined as the response current value.
The ability of L-amino acids to activate the calcium receptor was evaluated by using the method described in Reference Example 6. That is, oocytes injected with cRNA of the calcium receptor or sterilized water were prepared, and voltage-clamped at −70 mV by the double electrode voltage clamp method. To the voltage-clamped oocytes, alanine (10 mM), arginine (10 mM), asparagine (10 mM), aspartic acid (10 mM), cysteine (10 mM), glutamine (10 mM), glutamic acid (10 mM), glycine (10 mM), histidine (10 mM), isoleucine (10 mM), leucine (10 mM), lysine (10 mM), methionine (10 mM), phenylalanine (10 mM), proline (10 mM), serine (10 mM), threonine (10 mM), tryptophan (10 mM), tyrosine (10 mM), valine (10 mM), ornithine (10 mM), taurine (10 mM) or hydroxyproline (10 mM) was added, and Ca ion concentration-dependent Cl response current was measured. […] 25, 2000, 97(9): 4814-9.
The effect of D-cysteine for activating a calcium receptor was evaluated by using the method described in Reference Example 6. That is, oocytes injected with cRNA of the calcium receptor or sterilized water were prepared, and voltage-clamped at −70 mV by the double electrode voltage clamp method. To the voltage-clamped oocytes, D-cysteine (10 mM), L-cysteine (10 mM), D-tryptophan (10 mM) or L-tryptophan (10 mM) was added, and Ca ion concentration-dependent Cl response current was measured.
The effect of peptide for activating calcium receptor was evaluated by using the method described in Reference Example 6. That is, oocytes injected with cRNA of the calcium receptor or sterilized water were prepared, and voltage-clamped at −70 mV by the double electrode voltage clamp method. To the voltage-clamped oocytes, γ-Glu-Cys-Gly (50 μM), γ-Glu-Cys(SNO)-Gly (50 μM), γ-Glu-Ala (50 μM), γ-Glu-Gly (500 μM), γ-Glu-Cys (50 μM), γ-Glu-Met (500 μM), γ-Glu-Thr (50 μM), γ-Glu-Val (50 μM), γ-Glu-Orn (500 μM), Asp-Gly (1 mM), Cys-Gly (1 mM), Cys-Met (1 mM), Glu-Cys (50 μM), Gly-Cys (500 μM) or Leu-Asp (1 mM) was added, and Ca ion concentration-dependent Cl response current was measured.
The ability of a peptide to activate calcium receptor was evaluated in the same manner as that of Reference Example 10.
In the case of `N[C@H](CS)C(=O)O` [D-cysteine], the “calcium receptor-activating effect (Ca ion concentration-dependent Cl response current)” value (“calcium receptor-activating effect” below) is reported as “definite calcium receptor-activating effect”.
With `N[C@@H](CS)C(=O)O` [cysteine, reference compound] the “calcium receptor-activating effect” value was “definite calcium receptor-activating effect”.
For `N[C@@H](Cc1c[nH]cn1)C(=O)O` [histidine, reference compound], the “calcium receptor-activating effect” value was “definite calcium receptor-activating effect”.
In the case of `N[C@@H](Cc1ccccc1)C(=O)O` [phenylalanine, reference compound], the “calcium receptor-activating effect” value is reported as “definite calcium receptor-activating effect”.
With `N[C@@H](Cc1c[nH]c2ccccc12)C(=O)O` [tryptophan, reference compound] the “calcium receptor-activating effect” value was “definite calcium receptor-activating effect”.
In the case of `N[C@@H](Cc1ccc(O)cc1)C(=O)O` [tyrosine, reference compound], the “calcium receptor-activating effect” value is reported as “definite calcium receptor-activating effect”.

Same assay, conditions: peptide added at 50 μM
With `N[C@@H](CCC(=O)N[C@@H](CSN=O)C(=O)NCC(=O)O)C(=O)O` [γ-Glu-Cys(SNO)-Gly] the “effect for activating calcium receptor (Cl response current)” value (from here on “effect for activating calcium receptor”) was “definite effect for activating calcium receptor”.
For Glu-Cys, the “effect for activating calcium receptor” value was “definite effect for activating calcium receptor”.
In the case of [γGlu]-Ala, the “effect for activating calcium receptor” value is reported as “definite effect for activating calcium receptor”.
In the case of [γGlu]-Cys, the “effect for activating calcium receptor” value is reported as “definite effect for activating calcium receptor”.
In the case of [γGlu]-Thr, the “effect for activating calcium receptor” value is reported as “definite effect for activating calcium receptor”.
For [γGlu]-Val, the “effect for activating calcium receptor” value was “definite effect for activating calcium receptor”.

Same assay, conditions: peptide added at 500 μM
With Gly-Cys the “effect for activating calcium receptor” value was “definite effect for activating calcium receptor”.
In the case of [γGlu]-Gly, the “effect for activating calcium receptor” value is reported as “definite effect for activating calcium receptor”.
In the case of [γGlu]-Met, the “effect for activating calcium receptor” value is reported as “definite effect for activating calcium receptor”.
With γ-Glu-Orn the “effect for activating calcium receptor” value was “definite effect for activating calcium receptor”.

Same assay, conditions: peptide added at 1 mM
With Asp-Gly the “effect for activating calcium receptor” value was “definite effect for activating calcium receptor”.
With Cys-Gly the “effect for activating calcium receptor” value was “definite effect for activating calcium receptor”.
In the case of Cys-Met, the “effect for activating calcium receptor” value is reported as “definite effect for activating calcium receptor”.
With Leu-Asp the “effect for activating calcium receptor” value was “definite effect for activating calcium receptor”.

Same assay, conditions: peptide added at 1,000 to 0.1 μM; Ca ion concentration-dependent Cl response current; oocytes voltage-clamped at −70 mV
With [γGlu]-Gly-Gly [γ-Glu-Glγ-Gly] the “Activity (lowest concentration at which current is detected)” value (from here on “Activity”) was 30 µM.
With [γGlu]-Ser-Gly the “Activity” value was 30 µM.
In the case of [γGlu]-Val-Arg, the “Activity” value is reported as 1,000 μM.
For [γGlu]-Val-Asn, the “Activity” value was 30 µM.
For [γGlu]-Val-Cys, the “Activity” value was 10 µM.
With [γGlu]-Val-Gln the “Activity” value was 10 µM.
With [γGlu]-Val-Glu the “Activity” value was 1,000 μM.
With [γGlu]-Val-His the “Activity” value was 100 µM.
With [γGlu]-Val-Lys the “Activity” value was 1,000 μM.
With [γGlu]-Val-Met the “Activity” value was 1,000 μM.
With [γGlu]-Val-NH2 the “Activity” value was 1,000 μM.
For [γGlu]-Val-Phe, the “Activity” value was 30 µM.
For [γGlu]-Val-Pro, the “Activity” value was 30 µM.
In the case of [γGlu]-Val-Ser, the “Activity” value is reported as 30 µM.
In the case of [γGlu]-Val-Thr, the “Activity” value is reported as 1,000 μM.
With [γGlu]-Val-Val the “Activity” value was 1,000 μM.
With [γGlu]-Val-[Orn] the “Activity” value was 100 µM.
For [γGlu]-[Met(O)], the “Activity” value was 1,000 μM.
With [γGlu]-[γGlu]-Val the “Activity” value was 1,000 μM.
For γ-Glu-Cys(S-Me)-Gly, the “Activity” value was 3 µM.
For γ-Glu-Cys(S-allyl)-Gly, the “Activity” value was 100 µM.
For γ-Glu-Tau, the “Activity” value was 300 µM.
With γ-Glu-Val-Asp the “Activity” value was 1,000 μM.
With γ-Glu-Val-ol the “Activity” value was 1,000 μM.
For γ-Glu-t-Leu, the “Activity” value was 100 µM.

System: not listed separately
Test: Quantitative sensory evaluation test, intensity of kokumi-imparting activity
Settings: sample 0.1 g/dl; control 0, glutathione 3 points; n=3
Procedure: The quantitative sensory evaluation test was performed as follows. […] When a sample is acidic when dissolved, the pH was adjusted with NaOH to pH 6.8 to 7.2 before use. Because it is known that glutathione can impart kokumi to a food, glutathione was used as a comparative control. The test was performed with n=3 based on the following sensory evaluation scores: control was given 0 points, glutathione addition was given 3 points. […] It should be noted that the term “initial and middle taste” is a collective term of the initial taste and middle taste.
The quantitative sensory evaluation test was performed as follows. […] When a sample is acidic when dissolved, the pH of the sample was adjusted with NaOH to pH 6.8 to 7.2 before use. The test was performed with n=5 based on the following sensory evaluation scores: control was given 0 point and glutathione addition was given 3 points.
The quantitative sensory evaluation test was performed as follows. […] As for a sample which is acidic when the sample is dissolved, pH of the sample was adjusted with NaOH to pH 6.8 to 7.2 before use. The test was performed with n=12 based on the following sensory evaluation scores: control: 0 point and glutathione addition: 3 points.
In the case of [γGlu]-Ala, the “Kokumi intensity, aftertaste” value is reported as 0.2 points and the “Kokumi intensity, initial and middle taste” value is reported as 0.5 points.
For [γGlu]-Met, the “Kokumi intensity, aftertaste” value was 0.4 points and the “Kokumi intensity, initial and middle taste” value was 1.5 points.
For [γGlu]-Val, the “Kokumi intensity, aftertaste” value was 1.0 points and the “Kokumi intensity, initial and middle taste” value was 3.0 points.

Same assay, conditions: sample 0.1 g/dl; control 0, glutathione 3 points; n=5
In the case of [γGlu]-Cys, the “Kokumi intensity, aftertaste” value is reported as 2.0 points and the “Kokumi intensity, initial and middle taste” value is reported as 2.0 points.
For [γGlu]-Val, the “Kokumi intensity, aftertaste” value was 1.0 points and the “Kokumi intensity, initial and middle taste” value was 3.0 points.

Same assay, conditions: sample 0.1 g/dl; n=5
With [γGlu]-Cys the Taste profile was “A slightly”.
